# Measurements: PubChem BioAssay (NCI)
#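 Step 1: Grow cells in 96-well plates. Step 2: Expose to compound for 48 hours at 5 concentrations. Step 3: Interpolate endpoints linearly; if unreached, use highest concentration. GI50: concentration for 50% inhibition of growth. TGI denotes the concentration required for complete inhibition of growth.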
# How the values were obtained:
# Test in all cases: inhibition of tumour cell growth, NCI panel, 48 h
# UACC-62 melanoma = test system: UACC-62 melanoma
# SN12C renal = test system: SN12C renal
# SK-OV-3 ovarian = test system: SK-OV-3 ovarian
# HOP-62 NSCLC = test system: HOP-62 NSCLC
# MALME-3M melanoma = test system: MALME-3M melanoma
# SF-295 CNS = test system: SF-295 CNS
# MDA-N = test system: MDA-N
# RPMI-8226 leukemia = test system: RPMI-8226 leukemia
# SF-268 CNS = test system: SF-268 CNS
# 786-0 renal = test system: 786-0 renal
# NCI-H522 lung = test system: NCI-H522 lung
SMILES,TGI (UACC-62 melanoma) [µM],TGI (SN12C renal) [µM],TGI (SK-OV-3 ovarian) [µM],TGI (HOP-62 NSCLC) [µM],TGI (MALME-3M melanoma) [µM],TGI (SF-295 CNS) [µM],TGI (MDA-N) [µM],TGI (RPMI-8226 leukemia) [µM],TGI (SF-268 CNS) [µM],TGI (786-0 renal) [µM],TGI (NCI-H522 lung) [µM],GI50 (UACC-62 melanoma) [µM],GI50 (SK-OV-3 ovarian) [µM],GI50 (HOP-62 NSCLC) [µM],GI50 (MALME-3M melanoma) [µM],GI50 (NCI-H522 lung) [µM],GI50 (RPMI-8226 leukemia) [µM]
Nc1ncnc2c1[nH]c(=O)n2-c1ccccc1,> 100,> 100,> 100,> 100,> 100,> 100,> 100,> 100,> 100,> 100,,,,,,,
O=C(OCc1ccccc1)N1CCNCCN(C(=O)OCc2ccccc2)CCNCC1,70.3,> 100,> 100,33.4,,64.3,31,47.3,,47.9,34.5,,,,,,
CCN(CC)C(=S)N/N=C/c1cc([N+](=O)[O-])ccc1O,15.4,25.6,16.3,> 100,23.3,> 100,> 100,,57.5,68.9,17.6,,,,,,
O=S(=O)(c1ccccc1)c1cccc2c1NCCC2,> 10,> 100,> 10,> 100,> 100,> 100,> 100,> 100,> 100,> 100,,,,,,,
Cc1cccc(Cn2c3c(c4cc(O)ccc42)C(=O)c2ccccc2C3=O)c1,> 100,> 100,> 29.9,40.9,> 100,21.9,> 100,> 30.6,> 100,26.6,,,,,,,
O=C1c2cc3c(cc2-c2c1c1ccc(F)cc1c(=O)n2C[C@H](O)[C@@H](O)[C@H](O)CO)OCO3,0.123,,0.22,0.27,0.565,,,4.18,,,0.137,0.025,0.0324,0.0324,0.185,0.0167,0.422
Nc1nc(-c2ccccc2)nc2oc(-c3cccs3)nc12,> 100,> 100,,> 100,,> 100,,> 100,> 100,> 100,> 100,,,,,,
O=C1CCCCC1CN1CCCCC1 (centres undefined),> 100,> 100,> 100,> 100,> 100,> 100,> 100,,> 100,> 100,4.42,,,,,,
COc1ccc(C(=C2C=CC=C2)c2ccc(OC)cc2)cc1,98.1,81.3,> 100,> 100,81.8,54.4,> 100,28,> 100,,40.4,,,,,,
COC(=O)C1=C(C(=O)OC)SC(=C2SCSC3=C2SC(C(=O)OC)=C(C(=O)OC)C32SC3=C(CCCC3)S2)S1,> 100,> 100,> 100,> 100,> 100,> 100,> 100,,> 100,> 100,> 100,,,,,,
CC1(C(=O)O)CCC2(C)CCC3(C)C(=CC(=O)C4C5(C)CCC(O)C(C)(C)C5CCC43C)C2C1 (centres undefined),42.5,> 100,> 100,,> 100,70.1,> 100,,67.4,> 100,50.1,,,,,,
COc1cc(S(=O)(=O)Nc2nc(-c3ccc(N4C(=O)C(CC(=O)O)SC4c4cccs4)cc3)cs2)ccc1Cl (centres undefined),48.9,> 100,> 100,> 100,72.2,> 100,> 100,,50.9,> 100,37.1,,,,,,
CCC(=O)NC(Nc1cc(C)on1)(C(F)(F)F)C(F)(F)F,> 100,> 100,> 100,> 100,> 100,,,> 100,> 100,> 100,> 100,,,,,,
COc1ccc2cc1Oc1ccc(cc1)C[C@H]1c3cc(c(OC)cc3CCN1C)Oc1c(O)c(OC)cc3c1[C@H](C2)N(C)CC3,44.7,88.8,44.5,65.7,52.5,39.7,,75.2,150,,55.7,,,,,,
Oc1ccc2c(c1)c1c(n2CCN2CCOCC2)-c2ccccc2CC1,48.1,95.9,> 100,59.2,53.2,> 100,> 100,> 100,> 100,> 100,,,,,,,
CC1=C(Cl)C=CP(=O)(Oc2ccccc2)C1 (centres undefined),> 100,,,> 100,> 100,> 100,,,> 100,,29.9,,,,,,
CCC(=O)NCC1CCCN2CCCCC12 (centres undefined),> 100,> 100,> 100,,> 100,> 100,> 100,> 100,> 100,> 100,,,,,,,
COc1ccc(-c2[nH]c3c4c(nc5c(c24)C(=O)CC(C)(C)C5)CC(C)(C)C3)cc1,> 100,> 100,> 100,> 100,> 100,> 100,> 100,,> 100,> 100,> 100,,,,,,
O=C(C1OC1c1ccc(Br)cc1O)C12CC3CC(CC(C3)C1)C2 (centres undefined),40.6,30.1,,67.9,42.1,43,32.8,47.5,> 100,32.4,45.2,,,,,,
COc1ncc(/C=C2\OC(=O)c3ccccc32)c(OC)n1,,> 100,,66,> 100,> 100,> 100,> 100,> 100,> 100,> 100,,,,,,
Nn1c(Nc2ccc(S(=O)(=O)Nc3ncccn3)cc2)nnc(/C=C/c2c(O)ccc3ccccc23)c1=O,52.6,> 100,,> 100,75.8,,> 100,> 100,> 100,73.6,69.6,,,,,,
